Key:
[1] = target: T1, BK potassium channel, cloned hSlo (α-hSlo and β-bSlo) in CHO cells (Homo sapiens, UniProt Q12791); experiment: Em-Assay: membrane potential with voltage sensitive dye DiBAC(4)3, fluorescence plate reader; type: cell-based; details: compound 50 μM; NS004 25 or 50 μM; hSlo transfected CHO cells; change in DiBAC(4)3 fluorescence intensity
T1 construct: expressed in transfected cells; host or cells: CHO cells, permanently transfected
How it was run: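 CHO cells stably expressing α-hSlo and β-bSlo were loaded 30-60 min at 37° C with 2 μM DiBAC(4)3 in PBS/20 mM HEPES pH 7.4. Fluorescence (485/520 nm) was read every 60 s: 7 min baseline, then 15 min after compound. Background-subtracted, normalized change was expressed as a ratio to reference NS004.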

[2] = target: BK currents, cloned α-hSlo and β-bSlo in CHO cells (Homo sapiens, UniProt Q12791); experiment: Electrophysiological studies: whole-cell patch-clamp of BK currents; type: cell-based; details: compound 20 μM, steady-state BK current, free internal Ca2+ 1×10^−6M
Sequence of BK currents, cloned α-hSlo and β-bSlo in CHO cells (Q12791 whole entry): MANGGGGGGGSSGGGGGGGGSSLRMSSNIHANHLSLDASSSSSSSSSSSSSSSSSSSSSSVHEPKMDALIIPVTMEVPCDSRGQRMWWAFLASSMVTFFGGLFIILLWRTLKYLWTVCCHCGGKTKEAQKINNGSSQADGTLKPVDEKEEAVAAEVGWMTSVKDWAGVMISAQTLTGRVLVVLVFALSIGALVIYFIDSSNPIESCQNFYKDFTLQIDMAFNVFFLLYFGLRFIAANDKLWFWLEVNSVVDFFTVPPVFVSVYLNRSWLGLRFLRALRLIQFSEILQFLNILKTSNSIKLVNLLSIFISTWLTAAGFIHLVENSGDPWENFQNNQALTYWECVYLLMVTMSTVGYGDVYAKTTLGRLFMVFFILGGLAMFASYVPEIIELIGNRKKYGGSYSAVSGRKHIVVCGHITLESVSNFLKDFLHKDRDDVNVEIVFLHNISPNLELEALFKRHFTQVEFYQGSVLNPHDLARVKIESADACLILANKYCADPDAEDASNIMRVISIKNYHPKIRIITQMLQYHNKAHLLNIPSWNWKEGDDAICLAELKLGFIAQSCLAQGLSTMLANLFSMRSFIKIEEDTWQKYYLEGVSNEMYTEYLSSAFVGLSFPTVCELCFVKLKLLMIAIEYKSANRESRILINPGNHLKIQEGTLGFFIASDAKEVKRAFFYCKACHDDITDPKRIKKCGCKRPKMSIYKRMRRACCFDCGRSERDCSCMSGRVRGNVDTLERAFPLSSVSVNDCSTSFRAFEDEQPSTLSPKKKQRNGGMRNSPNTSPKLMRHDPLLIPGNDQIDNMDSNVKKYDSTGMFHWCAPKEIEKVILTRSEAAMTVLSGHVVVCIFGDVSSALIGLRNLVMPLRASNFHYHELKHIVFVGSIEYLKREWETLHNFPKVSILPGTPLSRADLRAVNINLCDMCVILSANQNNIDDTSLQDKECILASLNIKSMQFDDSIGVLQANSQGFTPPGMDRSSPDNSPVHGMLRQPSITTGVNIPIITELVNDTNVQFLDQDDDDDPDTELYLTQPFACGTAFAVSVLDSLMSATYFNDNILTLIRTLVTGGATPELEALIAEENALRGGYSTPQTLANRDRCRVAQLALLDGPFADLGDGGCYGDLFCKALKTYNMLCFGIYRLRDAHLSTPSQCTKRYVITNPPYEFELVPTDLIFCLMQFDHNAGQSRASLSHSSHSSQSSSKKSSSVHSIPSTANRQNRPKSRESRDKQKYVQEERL
Sequence of BK currents, cloned α-hSlo and β-bSlo in CHO cells (Q28067 2-191 partner): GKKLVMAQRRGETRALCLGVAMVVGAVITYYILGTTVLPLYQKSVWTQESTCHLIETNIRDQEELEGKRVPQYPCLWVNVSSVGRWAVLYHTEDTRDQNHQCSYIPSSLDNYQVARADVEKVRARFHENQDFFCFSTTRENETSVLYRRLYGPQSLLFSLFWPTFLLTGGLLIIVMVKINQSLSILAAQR
Method: Electrophysiological Studies:
CHO cells permanently transfected with cloned α-hSlo and β-bSlo were maintained as described above and used for electrophysiological characterisation, The whole-cell configuration of the patch-clamp technique was used to determine the effect of modulators on BK currents in these cells. The cell line expressing functional BK currents (Zhou et al., Pflügers Arch. 436, p.725 (1998)) were plated onto glass cover slips with a density of 1-5×10^4 cells/cover slip, incubated (37° C., 5% CO2) and used for patch-clamp experiments within 24-48 h. Cells were bathed in mammalian ringer solutions containing (in mM): 160NaCl, 4.5KCl, 2CaCl2, 1MgCl2, 10 HEPES, adjusted to pH 7.4, 290-310 mOsm. The internal pipette solution contained (in mM): 160KCl, 2CaCl2, 1MgCl2, 10 HEPES, EGTA was added to reach a free [Ca^2+]internal=1×10^−6M, adjusted to pH 7.2, 290-310 mOsm. Borosilicate pipettes with a resistance of 2-3 MΩ were filled with the internal solution and mounted on an appropriate holder. Prior to measurements a recording chamber was mounted onto the cell-plated cover slips and the cells were perfused with a simple syringe driven perfusion system. Compounds were added in the final concentration ([…]) to the bath solution using the same system. An EPC-9 patch-clamp amplifier with Pulse and PulseFit software (HEKA) was used to record and analyze currents.
After addition of the compounds to the bath solution their modulating effect was determined by the increase or decrease of specific BK currents after reaching steady-state relative to the BK current before application of drugs (see Table II).

T1 sequence (Q12791 1-1178 isoform Q12791-5): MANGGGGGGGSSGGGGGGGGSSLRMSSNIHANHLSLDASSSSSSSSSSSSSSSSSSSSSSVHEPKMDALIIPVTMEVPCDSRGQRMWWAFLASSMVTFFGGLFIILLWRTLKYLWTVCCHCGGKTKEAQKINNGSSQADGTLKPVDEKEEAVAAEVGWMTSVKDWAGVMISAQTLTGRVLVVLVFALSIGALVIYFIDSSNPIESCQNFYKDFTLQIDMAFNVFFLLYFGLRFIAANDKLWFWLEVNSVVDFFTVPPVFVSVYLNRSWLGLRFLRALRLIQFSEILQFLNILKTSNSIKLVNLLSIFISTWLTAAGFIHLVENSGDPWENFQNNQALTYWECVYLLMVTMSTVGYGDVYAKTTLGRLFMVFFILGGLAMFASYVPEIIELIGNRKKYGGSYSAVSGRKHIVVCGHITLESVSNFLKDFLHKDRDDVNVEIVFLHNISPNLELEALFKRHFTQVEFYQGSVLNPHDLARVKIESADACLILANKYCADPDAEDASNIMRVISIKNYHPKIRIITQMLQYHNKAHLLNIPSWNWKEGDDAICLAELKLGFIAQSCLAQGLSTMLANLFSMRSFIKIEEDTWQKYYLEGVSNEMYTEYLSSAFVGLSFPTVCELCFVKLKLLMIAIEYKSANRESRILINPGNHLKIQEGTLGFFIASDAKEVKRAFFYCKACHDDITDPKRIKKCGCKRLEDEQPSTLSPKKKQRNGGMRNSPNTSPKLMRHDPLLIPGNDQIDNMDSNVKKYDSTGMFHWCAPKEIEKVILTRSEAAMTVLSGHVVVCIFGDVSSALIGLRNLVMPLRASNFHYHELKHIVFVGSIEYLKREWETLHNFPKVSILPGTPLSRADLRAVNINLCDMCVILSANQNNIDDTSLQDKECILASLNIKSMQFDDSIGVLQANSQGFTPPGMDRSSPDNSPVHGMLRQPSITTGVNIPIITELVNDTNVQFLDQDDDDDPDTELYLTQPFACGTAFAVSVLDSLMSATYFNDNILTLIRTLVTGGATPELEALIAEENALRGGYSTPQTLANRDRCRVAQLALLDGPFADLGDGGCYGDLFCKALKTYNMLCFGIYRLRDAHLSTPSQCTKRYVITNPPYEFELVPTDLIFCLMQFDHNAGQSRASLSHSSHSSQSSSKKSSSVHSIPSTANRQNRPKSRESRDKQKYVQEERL
T1 sequence (Q28067 2-191 partner limits assumed): as the sequence (Q28067 2-191 partner) above

SMILES	Em effect: ratio of the compound effect compared to the maximal effect of NS004 [1]	Effect: ratio of current increase after application of compound relative to the control current before compound application [2]
Clc1cc(NCc2ccc(Br)cc2)ccc1NCc1ccc(Br)cc1 [Compound 13, N^1,N^4-Bis-(4-bromobenzyl)-2-chlorobenzene-1,4-diamine]	+++ (>1.5 = +++)	+++ (>1.2 = +++)
Clc1cccc(CNc2ccc(NCc3cccc(Cl)c3)c(Cl)c2)c1 [Compound 14]	+++ (>1.5 = +++)	+ (1-1.1 = +)
Clc1cc(NCc2ccc3ccccc3c2)ccc1NCc1ccc2ccccc2c1 [Compound 15]	+++ (>1.5 = +++)	+ (1-1.1 = +)
Fc1cccc(CNc2cccc(NCc3cccc(F)c3)c2)c1 [Compound 35, N,N′-bis-(3-fluorobenzyl)-benzene-1,3-diaimine]	++ (>1-1.5 = ++)	+++ (>1.2 = +++)

Reference: patent US20040009973A1, “Novel potassium channels modulators” (4SC AG, priority 2002, published 2004)
